Drawing on patent publication US10202334B2, “Pendant amines and derivatives as inhibitors of leukotriene A4 hydrolase” (Celtaxsys, Inc., priority 2016, dated 2019), this text covers IC50 for 14 molecules.

Like-named read-outs stand apart in the source and are kept apart here.

Assay [1] has as its target T1, LTA4 hydrolase peptidase activity (Homo sapiens, UniProt P09960).
T1 sequence (P09960 1-611): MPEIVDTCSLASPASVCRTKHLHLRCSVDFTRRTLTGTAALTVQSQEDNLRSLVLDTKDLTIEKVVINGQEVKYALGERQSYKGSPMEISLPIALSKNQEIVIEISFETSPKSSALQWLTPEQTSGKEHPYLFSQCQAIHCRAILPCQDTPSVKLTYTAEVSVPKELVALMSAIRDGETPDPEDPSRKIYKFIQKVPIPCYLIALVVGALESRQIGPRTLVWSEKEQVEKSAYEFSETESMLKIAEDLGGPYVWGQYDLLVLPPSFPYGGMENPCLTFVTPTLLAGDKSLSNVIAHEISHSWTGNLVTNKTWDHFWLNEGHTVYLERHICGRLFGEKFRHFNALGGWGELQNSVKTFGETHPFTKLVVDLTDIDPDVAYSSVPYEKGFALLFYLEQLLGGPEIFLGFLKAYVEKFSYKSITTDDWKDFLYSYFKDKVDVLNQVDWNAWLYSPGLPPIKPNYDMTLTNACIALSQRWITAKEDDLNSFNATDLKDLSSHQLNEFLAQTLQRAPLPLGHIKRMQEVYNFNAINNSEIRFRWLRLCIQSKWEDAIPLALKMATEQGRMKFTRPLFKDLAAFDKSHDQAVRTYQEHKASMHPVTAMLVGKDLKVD
Kind of assay: Peptidase assay (hydrolysis of L-alanine-p-nitroanilide). Format: biochemical. On the procedure: Inhibition of peptidase activity was measured for the compounds of the invention by using methods similar to those described in Kull, F. et al., The Journal of Biological Chemistry 1999, 274 (49): 34683-34690.
In brief, the enzyme (29 nM) was incubated with L-alanine-p-nitroanilide (1 mM) in 50 mM HEPES (pH 7.5), 100 mM KCL, 1% DMSO in the absence or presence of a compound of the invention for 1 hour at ambient temperature. Reaction was terminated by addition of acetic acid (1%). Formation of colored nitro-aniline was measured by the increase in absorbance at 405 nm in a Victor 2 plate reader (Wallac). Spontaneous hydrolysis of the substrate was corrected for by subtracting the absorbance of control incubations without enzyme.

The test system of assay [2] is production of LTB4 in whole blood. Kind of assay: Human whole blood assay (LTB4 release upon calcium ionophore, ELISA). Format: cell-based. On the procedure:
Compounds of the invention were tested for their ability as inhibitors of LTA4 hydrolase in a whole blood assay using human, mouse, rat or dog whole blood in a manner similar to that described in Penning, T. D. et al., J. Med. Chem. (2000), 43(4): 721-735. In this assay, compounds were tested for their ability to inhibit LTB4 release upon stimulation with calcium ionophore. The LTB4 levels in supernatants were measured by ELISA.
Background: ELISA stands for enzyme-linked immunosorbent assay.

For assay [3], the target named is T2, recombinant human LTA4 hydrolase (Homo sapiens, UniProt P09960).
T2 sequence (P09960 1-611): T1 sequence (P09960 1-611)
Kind of assay: LTA4 hydrolase homogeneous time resolved fluorescence (HTRF) assay. Type of assay: biochemical. How it is done:
Compounds of the invention were tested in the LTA4 hydrolase homogeneous time resolved fluorescence (HTRF) assay to determine their ability to inhibit the hydrolysis of LTA4 to LTB4. The assay analyzes the amount of LTB4 produced.
LTA4 HTRF assay is a two-step assay involving enzymatic conversion of LTA4 to LTB4, and subsequent quantification of LTB4, product with HTRF assay.
The enzymatic conversion of LTA4 to LTB4 was performed in 384-well plates at ambient temperature in a reaction mixture containing 50 mM HEPES (pH 7.5), 0.5% BSA (fatty acid free), 18 nM recombinant human LTA4 hydrolase, 150 nM LTA4, 1% DMSO in the absence or presence of a compound of the invention. Reaction was stopped after 10 minutes incubation by diluting the incubation mixture 10-fold in 50 mM phosphate, 0.1% casein buffer (pH 7.0).
LTB4 formed was quantified with the HTRF assay in which free LTB4 competes with LTB4-XL665 conjugate (acceptor) for anti-LTB4 monoclonal antibody labeled with Europium cryptate (donor), thereby inhibiting the fluorescence energy transfer.
The LTB4 HTRF 384-well assay was carried out by incubating LTB4 samples or standards with LTB4-XL665 conjugate (7.5 ng/well) and anti-LTB4 monoclonal antibody-Europium cryptate conjugate (0.5 ng/well) in 50 mM phosphate, 0.4 M KF and 0.1% casein, buffer (pH 7.0) for two hours at ambient temperature. Plates were read in a RubyStar plate reader (BmG Labtechnologies Inc., NC) simultaneously at 620 nm and 665 nm to obtain signal ratios of 665 nm/620 nm. Results of energy transfer were expressed as delta F (%) which equaled [(signal ratio of sample-signal ratio of negative control)/(signal ratio of negative control)]×100%. Negative controls were control samples without LTB4 or LTB4-XL665.
Sample LTB4 concentrations were calculated from the LTB4 standard curve using the 4-parameter fit equation. For determination IC50 values for a particular compound of the invention, eight serially diluted compound concentrations (at 1:3.16 dilution) were used in this assay. Controls without a compound of the invention or with a reference compound were run parallel in the same assay plate.
(In general: TR-FRET usually uses a lanthanide donor and a delayed reading to cut background.)

The mark [4] stands for this setting: Table 1, read-out: Peptidase IC50.
The mark [5] stands for this setting: Table 1, human whole blood, read-out: Human Whole Blood IC50.
[6] abbreviates: read-out: inhibit LTA4 hydrolase activity, IC50 value.
Where [7] appears, read: read-out: inhibit peptidase activity, IC50 value.
[8] abbreviates: Homo sapiens, whole blood, read-out: inhibit production of LTB4 in whole blood, IC50 value.
Where [9] appears, read: Table 1, read-out: Hydrolase IC50.

`CC(C)(C)OC(=O)[C@@H](N)CCC(=O)Nc1ccc(CCC(=O)c2ccccc2)cc1` [tert-butyl N5-(4-(3-oxo-3-phenylpropyl)phenyl)glutaminate]: the values for the concentration for half-maximal inhibition (IC50) in assay [1] (setting [4]) and in assay [2] (setting [5]) were 146 nM and 41 nM, respectively.
For `NC(=O)C(N)CCC(=O)Nc1ccc(Oc2ccccc2)cc1` (centres unmarked) [Example 2, 4-amino-N1-(4-phenoxyphenyl)pentanediamide], the half-maximal inhibitory concentration (IC50) is 84 nM in assay [3] (setting [6]), 22 nM in assay [1] (setting [7]), 143 nM in assay [2] (setting [8]) and 143 nM in assay [2] (setting [5]).
Turning to `COC(=O)[C@@H](N)CCC(=O)Nc1ccc(OCC(=O)c2ccccc2)cc1` [methyl N5-(4-(2-oxo-2-phenylethoxy)phenyl)glutaminate], the IC50 in assay [3] (setting [9]) worked out at 67 nM; in assay [1] (setting [4]) it was 31 nM; in assay [2] (setting [5]) it was 61 nM.
Turning to `CCOC(=O)CCNC(=O)[C@H](N)CCC(=O)Nc1ccc(Oc2ccccc2)cc1` [Example 10, ethyl 3-[(2R)-2-amino-4-[(4-phenoxyphenyl)carbamoyl]butanamido]propanoate], the figures for the IC50 in assay [3] (setting [6]) and in assay [1] (setting [7]) were 73 nM and 40 nM, respectively.
In the case of `COC(=O)[C@@H](N)CCC(=O)Nc1ccc(Oc2ccc(-n3cccc3)cc2)cc1` [Example 4, methyl N^5-(4-(4-(1H-pyrrol-1-yl)phenoxy)phenyl)glutaminate], the concentration for half-maximal inhibition (IC50) came to 17 nM in assay [3] (setting [6]), 21 nM in assay [1] (setting [7]), 55 nM in assay [2] (setting [8]) and 55 nM in assay [2] (setting [5]).
For “(2S)-2-amino-N-[2-(pyridin-2-yl)ethyl]-N′-{4-[4-(1H-pyrrol-1-yl)phenoxy]phenyl}pentanediamide [Example 8]”, the IC50 was 32 nM in assay [1] (setting [7]) and 264 nM in assay [2] (whole blood, read-out: inhibit production of LTB4 in whole blood, IC50 value).
Take `CNC(=O)C(N)CCC(=O)Nc1ccc(OCc2ccccc2)cc1` (centres unmarked) [Example 1, 2-amino-N5-(4-(benzyloxy)phenyl)-N1-methylpentanediamide]: the concentration for half-maximal inhibition (IC50) in assay [3] (setting [6]) worked out at 27 nM; in assay [1] (setting [7]), 24 nM; in assay [2] (setting [8]) it was 117 nM; in assay [2] (setting [5]), 117 nM.
`NC(CCC(=O)Nc1ccc(Oc2ccccc2)cc1)C(=O)NCCCl` (centres unmarked) [Example 3, 2-amino-N^1-(2-chloroethyl)-N^5-(4-phenoxyphenyl)pentanediamide]: the IC50 in assay [3] (setting [6]) was determined as 58 nM; in assay [1] (setting [7]), 24 nM; in assay [2] (setting [8]), 83 nM; in assay [2] (setting [5]) it was 83 nM.
For `NC(CCC(=O)NCCN1CCCC1)C(=O)Nc1ccc(Oc2ccc(-n3cccc3)cc2)cc1` (stereo in doubt) [Example 7, (2R)-2-amino-N-{4-[4-(1H-pyrrol-1-yl)phenoxy]phenyl}-N′-[2-(pyrrolidin-1-yl)ethyl]pentanediamide], the IC50 in assay [3] (setting [6]) worked out at 38 nM; in assay [1] (setting [7]) it was 25 nM; in assay [2] (setting [8]) it was 138 nM; in assay [2] (setting [5]) it was 138 nM.
As for `COC(=O)CCC(=O)NCC(N)CCC(=O)Nc1ccc(Oc2ccccc2)cc1` (stereo in doubt) [Example 6, methyl 3-{[(2R)-2-amino-4-[(4-phenoxyphenyl)carbamoyl]butyl]carbamoyl}propanoate], the IC50 in assay [1] (setting [7]) was found to be 215 nM; in assay [2] (setting [8]), 252 nM; in assay [2] (setting [5]) it was 252 nM.
Turning to `COC(=O)[C@@H](N)CCC(=O)Nc1ccc(Nc2ccccc2)cc1` [Example 12, methyl (2S)-2-amino-4-{[4-(phenylamino)phenyl]carbamoyl}butanoate], the IC50 in assay [1] (setting [7]) was found to be 213 nM; in assay [2] (setting [8]), 184 nM; in assay [2] (setting [5]), 184 nM.
For the molecule `N[C@H](CCC(=O)Nc1ccc(Oc2ccc(-n3cccc3)cc2)cc1)C(=O)NCCc1cnc[nH]1` [Example 9, (2R)-2-amino-N-[2-(1H-imidazol-5-yl)ethyl]-N′-{4-[4-(1H-pyrrol-1-yl)phenoxy]phenyl}pentanediamide], the IC50 was 10 nM in assay [3] (setting [6]), 53 nM in assay [1] (setting [7]), 664 nM in assay [2] (setting [8]) and 664 nM in assay [2] (setting [5]).
As to `N[C@@H](CCC(=O)Nc1ccc(OCc2ccccc2)cc1)C(=O)NCc1ccccc1` [(2S)-2-amino-N-benzyl-N′-[4-(benzyloxy)phenyl]pentanediamide], the IC50 stood at 107 nM in assay [3] (setting [9]) and 118 nM in assay [1] (setting [4]).
Turning to `COC(=O)[C@@H](N)CCC(=O)Nc1ccc(OCC(O)c2ccccc2)cc1` (stereo partly drawn) [Example 11, methyl (2S)-2-amino-4-{[4-(2-hydroxy-2-phenylethoxy)phenyl]carbamoyl}butanoate], the IC50 in assay [1] (setting [7]) amounted to 21 nM; in assay [2] (setting [8]), 113 nM; in assay [2] (setting [5]), 113 nM.

Broadly, the IC50 is the concentration at which inhibition is half-maximal.
